Assay results published in ChEMBL document CHEMBL5360532, “Current scenario of quinolone hybrids with potential antibacterial activity against ESKAPE pathogens” (Eur J Med Chem, 2023).
In brackets after ≈: the same amount, converted by molar mass.

What was measured:
Escherichia coli [1] = experiment: Antibacterial activity against Escherichia coli ATCC 8739 assessed as bacterial growth inhibition by agar dilution method; type: functional
Klebsiella pneumoniae [2] = experiment: Antibacterial activity against Klebsiella pneumoniae ATCC 10031 assessed as bacterial growth inhibition by agar dilution method; type: functional
Enterobacter cloacae = experiment: Antibacterial activity against Enterobacter cloacae PTCC 1003 assessed as bacterial growth inhibition by agar dilution method; type: functional
Escherichia coli [3] = experiment: Antibacterial activity against Escherichia coli assessed as bacterial growth inhibition by agar streak dilution assay; type: functional
Klebsiella pneumoniae [4] = experiment: Antibacterial activity against Klebsiella pneumoniae assessed as bacterial growth inhibition by agar streak dilution assay; type: functional
Staphylococcus aureus [5] = experiment: Antibacterial activity against Staphylococcus aureus assessed as bacterial growth inhibition by agar streak dilution assay; type: functional
Escherichia coli [6] = experiment: Antibacterial activity against Escherichia coli ATCC35218 assessed as bacterial growth inhibition measured after 18 to 24 hrs inhibition by broth microdilution assay; type: functional; conditions: time 18-24 hrs
Pseudomonas aeruginosa [7] = experiment: Antibacterial activity against Pseudomonas aeruginosa ATCC43288 assessed as bacterial growth inhibition measured after 18 to 24 hrs inhibition by broth microdilution assay; type: functional; conditions: time 18-24 hrs
Pseudomonas aeruginosa [8] = experiment: Antibacterial activity against Pseudomonas aeruginosa […] assessed as bacterial growth inhibition measured after 18 to 24 hrs inhibition by broth microdilution assay; type: functional; conditions: time 18-24 hrs
[9] = Anticancer activity against EAC cell assessed as cell growth inhibition measured after 24 to 72 hrs by MTT assay; type: functional, cell-based; conditions: Ehrlich
HT-29 = experiment: Anticancer activity against human HT-29 cell assessed as cell growth inhibition measured after 24 to 72 hrs by MTT assay; type: functional, cell-based
WRL68 = experiment: Anticancer activity against human WRL68 cell assessed as cell growth inhibition measured after 24 to 72 hrs by MTT assay; type: functional, cell-based
Staphylococcus aureus [10] = experiment: Antibacterial activity against Staphylococcus aureus assessed as bacterial growth inhibition by agar cup diffusion assay; type: functional
Staphylococcus aureus [11] = experiment: Potency index, ratio of ciprofloxacin MIC to test compound MIC for antimicrobial activity against Staphylococcus aureus assessed as bacterial growth inhibition by agar cup diffusion assay; type: functional
Staphylococcus aureus [12] = experiment: Antibacterial activity against Staphylococcus aureus assessed as bacterial growth inhibition by broth microdilution assay; type: functional
Escherichia coli [13] = experiment: Antibacterial activity against Escherichia coli assessed as bacterial growth inhibition by broth microdilution assay; type: functional
Staphylococcus aureus [14] = experiment: Potency index, ratio of norfloxacin MIC to test compound MIC for antimicrobial activity against Staphylococcus aureus assessed as bacterial growth inhibition measured after 18 to 24 hrs inhibition by broth microdilution assay; type: functional; conditions: time 18-24 hrs
Escherichia coli [15] = experiment: Antibacterial activity against Escherichia coli assessed as bacterial growth inhibition by agar cup diffusion assay; type: functional
Klebsiella pneumoniae [16] = experiment: Antibacterial activity against Klebsiella pneumoniae assessed as bacterial growth inhibition by agar cup diffusion assay; type: functional
[17] = system: Mycobacterium tuberculosis; experiment: Antimycobacterial activity against Mycobacterium tuberculosis H37Rv assessed as bacterial growth inhibition by agar cup diffusion assay; type: functional
[18] = system: Mycobacterium tuberculosis; experiment: Antimycobacterial activity against pan sensitive Mycobacterium tuberculosis R2012-123 assessed as bacterial growth inhibition by agar cup diffusion assay; type: functional
Pseudomonas aeruginosa [19] = experiment: Antibacterial activity against Pseudomonas aeruginosa assessed as bacterial growth inhibition by broth microdilution assay; type: functional
Klebsiella pneumoniae [20] = experiment: Antibacterial activity against Klebsiella pneumoniae assessed as bacterial growth inhibition by two fold microdilution assay; type: functional
Escherichia coli [21] = experiment: Antibacterial activity against Escherichia coli ATCC 8739 assessed as bacterial growth inhibition by two fold microdilution assay; type: functional
Staphylococcus aureus [22] = experiment: Antibacterial activity against Staphylococcus aureus ATCC 6538P assessed as bacterial growth inhibition by two fold microdilution assay; type: functional
Acinetobacter baumannii = experiment: Antibacterial activity against Acinetobacter baumannii assessed as bacterial growth inhibition by agar dilution assay; type: functional
Pseudomonas aeruginosa [23] = experiment: Antibacterial activity against Pseudomonas aeruginosa ATCC 27853 assessed as bacterial growth inhibition by agar dilution assay; type: functional
Staphylococcus aureus [24] = experiment: Antibacterial activity against Staphylococcus aureus assessed as bacterial growth inhibition by agar dilution assay; type: functional
Staphylococcus aureus [25] = experiment: Antibacterial activity against methicillin resistant Staphylococcus aureus assessed as bacterial growth inhibition by agar dilution assay; type: functional
Klebsiella pneumoniae [26] = experiment: Antibacterial activity against Klebsiella pneumoniae AUMC B-77 assessed as bacterial growth inhibition by agar cup diffusion method; type: functional
Pseudomonas aeruginosa [27] = experiment: Antibacterial activity against Pseudomonas aeruginosa assessed as bacterial growth inhibition by agar cup diffusion assay; type: functional
Aspergillus niger = experiment: Antifungal activity against Aspergillus niger assessed as fungal growth inhibition by agar cup diffusion assay; type: functional
Aspergillus fumigatus = experiment: Antifungal activity against Aspergillus fumigatus assessed as fungal growth inhibition by agar cup diffusion assay; type: functional
[28] = system: Mycobacterium tuberculosis; experiment: Antimycobacterial activity against Mycobacterium tuberculosis H37Rv assessed as bacterial growth inhibition by broth microdilution assay; type: functional
Staphylococcus aureus [29] = experiment: Antibacterial activity against methicillin resistant Staphylococcus aureus assessed as bacterial growth inhibition by agar cup diffusion assay; type: functional
Staphylococcus aureus [30] = experiment: Antibacterial activity against Staphylococcus aureus ATCC 25923 assessed as bacterial growth inhibition measured after 18 to 24 hrs by agar dilution assay; type: functional; conditions: time 18-24 hrs
Staphylococcus aureus [31] = experiment: Potency index, ratio of ciprofloxacin MIC to test compound MIC for antibacterial activity against Staphylococcus aureus ATCC 25923 assessed as bacterial growth inhibition measured after 18 to 24 hrs by agar dilution assay; type: functional; conditions: time 18-24 hrs
Staphylococcus aureus [32] = experiment: Antibacterial activity against Staphylococcus aureus assessed as bacterial growth inhibition measured after 16 to 24 hrs by broth microdilution assay; type: functional; conditions: time 16-24 hrs
Staphylococcus aureus [33] = experiment: Antibacterial activity against methicillin resistant Staphylococcus aureus assessed as bacterial growth inhibition measured after 16 to 24 hrs by broth microdilution assay; type: functional; conditions: time 16-24 hrs
Enterococcus = experiment: Antibacterial activity against vancomycin resistant Enterococcus assessed as bacterial growth inhibition measured after 16 to 24 hrs by broth microdilution assay; type: functional; conditions: time 16-24 hrs
Streptococcus agalactiae = experiment: Antibacterial activity against Streptococcus agalactiae assessed as bacterial growth inhibition measured after 16 to 24 hrs by broth microdilution assay; type: functional; conditions: time 16-24 hrs
Haemophilus influenzae = experiment: Antibacterial activity against Haemophilus influenzae assessed as bacterial growth inhibition measured after 16 to 24 hrs by broth microdilution assay; type: functional; conditions: time 16-24 hrs

CC(=O)C(C(C)=O)C(=O)c1cn(C2CC2)c2cc(N3CCN(/N=N/c4nc(C)cc(C)n4)CC3)c(F)cc2c1=O
MIC (Escherichia coli [1]): 0.015 µg/mL (≈ 0.0274 µM)
MIC (Klebsiella pneumoniae [2]): 0.015 µg/mL (≈ 0.0274 µM)
MIC (Enterobacter cloacae): 0.015 µg/mL (≈ 0.0274 µM)

COc1c(N2CCN([S+]([O-])c3ccc(N)c(C)c3)C(C)C2)c(F)c(C)c2c(=O)c(C(=O)O)cn(C3CC3)c12 (centres undefined)
MIC (Escherichia coli [3]): 0.9 µg/mL (≈ 1.66 µM)
MIC (Klebsiella pneumoniae [4]): 0.9 µg/mL (≈ 1.66 µM)
MIC (Staphylococcus aureus [5]): 0.9 µg/mL (≈ 1.66 µM)

O=C(O)c1cn(C2CC2)c2cc(N3CCN(Cn4nc(CN5CCN(c6ccc([N+](=O)[O-])cc6)CC5)oc4=S)CC3)c(F)cc2c1=O
MIC (Escherichia coli [6]): 0.03 µg/mL (≈ 0.0451 µM)
MIC (Pseudomonas aeruginosa [7]): 0.03 µg/mL (≈ 0.0451 µM)
MIC (Pseudomonas aeruginosa [8]): 0.03 µg/mL (≈ 0.0451 µM)

COc1cccc2c1C(=O)c1c(O)c3c(c(O)c1C2=O)C[C@@](O)(C(=O)CO)C[C@@H]3O[C@H]1C[C@H](N)[C@H](O)[C@H](C)O1 [DOXORUBICIN]
IC50 [9]: 259 nM
IC50 (HT-29): 259 nM
IC50 (WRL68): 259 nM

O=C(O)c1cn(C2CC2)c2cc(N3CCN(Cc4nnc(-c5ccc(O)cc5)o4)CC3)c(F)cc2c1=O
MIC (Staphylococcus aureus [10]): 0.2 µg/mL (≈ 0.396 µM)
Ratio (Staphylococcus aureus [11]): >=4
MIC (Staphylococcus aureus [12]): 0.125 µg/mL (≈ 0.247 µM)
MIC (Escherichia coli [13]): ≤ 0.125 µg/mL
Ratio (Staphylococcus aureus [14]): >=4

C=CCn1c(SCC(=O)N2CCN(c3cc4c(cc3F)c(=O)c(C(=O)O)cn4C3CC3)CC2)nnc1-c1ccccc1
MIC (Escherichia coli [15]): 1.7 µg/mL (≈ 2.89 µM)
MIC (Klebsiella pneumoniae [16]): 1.7 µg/mL (≈ 2.89 µM)
MIC (Staphylococcus aureus [10]): 1.7 µg/mL (≈ 2.89 µM)
MIC [17]: 4 µg/mL (≈ 6.8 µM)
MIC [18]: 4 µg/mL (≈ 6.8 µM)

CCn1cc(C(=O)O)c(=O)c2cc(F)c(N3CCNCC3)cc21 [NORFLOXACIN]
MIC (Staphylococcus aureus [12]): ≤ 0.125 µg/mL
MIC (Escherichia coli [13]): ≤ 0.125 µg/mL
MIC (Pseudomonas aeruginosa [19]): ≤ 0.125 µg/mL
MIC (Klebsiella pneumoniae [20]): ≤ 0.125 µg/mL
MIC (Escherichia coli [21]): ≤ 0.125 µg/mL
MIC (Staphylococcus aureus [22]): ≤ 0.125 µg/mL
MIC (Acinetobacter baumannii): ≥ 4 µg/mL
MIC (Pseudomonas aeruginosa [23]): ≥ 4 µg/mL
MIC (Staphylococcus aureus [24]): ≥ 4 µg/mL
MIC (Staphylococcus aureus [25]): ≥ 4 µg/mL
MIC (Klebsiella pneumoniae [26]): 0.5 µg/mL (≈ 1.57 µM)

Nc1ccc(-c2nnc(-c3cn(C4CC4)c4cc(N5CCNCC5)c(F)cc4c3=O)o2)c(O)c1
MIC (Escherichia coli [15]): 0.3 µg/mL (≈ 0.649 µM)
MIC (Pseudomonas aeruginosa [27]): 0.3 µg/mL (≈ 0.649 µM)
MIC (Aspergillus niger): 9.8 µg/mL (≈ 21.2 µM)
MIC (Aspergillus fumigatus): 9.8 µg/mL (≈ 21.2 µM)

NNC(=O)c1ccncc1 [ISONIAZID]
MIC [28]: 1.5 µg/mL (≈ 10.9 µM)

O=C(O)c1cn(C2CC2)c2cc(N3CCN(C(=O)CN4C(=O)S/C(=C\c5ccco5)C4=O)CC3)c(F)cc2c1=O
MIC (Staphylococcus aureus [10]): 0.005 µg/mL (≈ 0.00883 µM)
MIC (Staphylococcus aureus [29]): 0.22 µg/mL (≈ 0.388 µM)

Cc1c(F)c(N2CCNC(C)C2)cc2c1c(=O)c(C(=O)O)cn2C1CC1 (centres undefined) [GREPAFLOXACIN]
MIC (Escherichia coli [3]): 0.5 µg/mL (≈ 1.39 µM)
MIC (Klebsiella pneumoniae [4]): 0.5 µg/mL (≈ 1.39 µM)
MIC (Staphylococcus aureus [5]): 0.5 µg/mL (≈ 1.39 µM)

CNc1ccc([S+]([O-])N2CCN(c3c(F)c(C)c4c(=O)c(C(=O)O)cn(C5CC5)c4c3OC)CC2C)cc1C (centres undefined)
MIC (Escherichia coli [3]): 0.9 µg/mL (≈ 1.62 µM)
MIC (Klebsiella pneumoniae [4]): 0.9 µg/mL (≈ 1.62 µM)
MIC (Staphylococcus aureus [5]): 0.9 µg/mL (≈ 1.62 µM)

CO[C@H]1/C=C/O[C@@]2(C)Oc3c(C)c(O)c4c(O)c(c(/C=N/N5CCN(C)CC5)c(O)c4c3C2=O)NC(=O)/C(C)=C\C=C\[C@H](C)[C@H](O)[C@@H](C)[C@@H](O)[C@@H](C)[C@H](OC(C)=O)[C@@H]1C [RIFAMPIN]
MIC [28]: 1 µg/mL (≈ 1.22 µM)

CCOC(=O)c1cn(C2CC2)c2cc(N3CCN(Cc4cn(-c5ccc(C(C)=O)cc5)nn4)CC3)c(F)cc2c1=O
MIC (Staphylococcus aureus [30]): 3.12 µg/mL (≈ 5.59 µM)
Ratio (Staphylococcus aureus [31]): 2

CC(=O)NC[C@H]1CN(c2ccc(N3CCOCC3)c(F)c2)C(=O)O1 [LINEZOLID]
MIC (Staphylococcus aureus [32]): 1 µg/mL (≈ 2.96 µM)
MIC (Staphylococcus aureus [33]): 1 µg/mL (≈ 2.96 µM)
MIC (Enterococcus): 1 µg/mL (≈ 2.96 µM)
MIC (Streptococcus agalactiae): 1 µg/mL (≈ 2.96 µM)
MIC (Haemophilus influenzae): 1 µg/mL (≈ 2.96 µM)
